# What was measured:
# [1] = target: T1, GSPT1 (Homo sapiens, UniProt P15170+Q96SW2); test: Western-blot assay of substrate protein degradation in hPBMCs, GSPT1; type: cell-based; details: 24 hours of compound treatment, compounds tested at 50 nM and 500 nM (concentration of the table not stated)
# T1 construct: endogenous in cells; host or cells: hPBMCs (Milecell Biotechnologies)
# [2] = target: T2, IKZF3 (Homo sapiens, UniProt Q96SW2+Q9UKT9); test: Western-blot assay of substrate protein degradation in hPBMCs, IKZF3; type: cell-based; details: 24 hours of compound treatment, compounds tested at 50 nM and 500 nM (concentration of the table not stated)
# T2 construct: endogenous in cells; host or cells: hPBMCs (Milecell Biotechnologies)
# T2 sequence (Q9UKT9 whole entry): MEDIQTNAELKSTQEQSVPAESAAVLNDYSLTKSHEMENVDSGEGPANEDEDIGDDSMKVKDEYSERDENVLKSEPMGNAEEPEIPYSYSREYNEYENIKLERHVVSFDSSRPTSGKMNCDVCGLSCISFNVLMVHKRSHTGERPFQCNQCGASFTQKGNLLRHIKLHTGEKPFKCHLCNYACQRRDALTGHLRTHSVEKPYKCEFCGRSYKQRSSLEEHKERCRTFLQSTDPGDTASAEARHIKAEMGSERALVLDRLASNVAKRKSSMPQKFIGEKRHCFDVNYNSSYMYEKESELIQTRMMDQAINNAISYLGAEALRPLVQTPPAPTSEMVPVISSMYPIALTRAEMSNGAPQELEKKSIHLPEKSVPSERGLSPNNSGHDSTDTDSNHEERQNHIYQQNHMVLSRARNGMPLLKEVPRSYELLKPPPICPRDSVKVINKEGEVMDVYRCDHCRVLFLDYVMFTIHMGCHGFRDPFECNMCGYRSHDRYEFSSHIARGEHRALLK
# T2 sequence (Q96SW2 whole entry): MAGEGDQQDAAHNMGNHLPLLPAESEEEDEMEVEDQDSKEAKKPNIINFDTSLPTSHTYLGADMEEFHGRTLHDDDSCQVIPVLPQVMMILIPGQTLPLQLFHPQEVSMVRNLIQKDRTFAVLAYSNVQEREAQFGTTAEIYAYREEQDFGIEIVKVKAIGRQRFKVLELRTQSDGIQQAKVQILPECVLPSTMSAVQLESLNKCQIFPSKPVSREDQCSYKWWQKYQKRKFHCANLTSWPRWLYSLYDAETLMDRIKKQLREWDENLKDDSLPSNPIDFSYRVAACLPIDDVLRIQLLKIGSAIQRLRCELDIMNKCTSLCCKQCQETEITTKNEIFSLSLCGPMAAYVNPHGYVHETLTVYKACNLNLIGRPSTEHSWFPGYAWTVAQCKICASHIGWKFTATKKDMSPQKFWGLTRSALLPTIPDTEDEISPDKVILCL
# T2 sequence (Q16531 whole entry partner): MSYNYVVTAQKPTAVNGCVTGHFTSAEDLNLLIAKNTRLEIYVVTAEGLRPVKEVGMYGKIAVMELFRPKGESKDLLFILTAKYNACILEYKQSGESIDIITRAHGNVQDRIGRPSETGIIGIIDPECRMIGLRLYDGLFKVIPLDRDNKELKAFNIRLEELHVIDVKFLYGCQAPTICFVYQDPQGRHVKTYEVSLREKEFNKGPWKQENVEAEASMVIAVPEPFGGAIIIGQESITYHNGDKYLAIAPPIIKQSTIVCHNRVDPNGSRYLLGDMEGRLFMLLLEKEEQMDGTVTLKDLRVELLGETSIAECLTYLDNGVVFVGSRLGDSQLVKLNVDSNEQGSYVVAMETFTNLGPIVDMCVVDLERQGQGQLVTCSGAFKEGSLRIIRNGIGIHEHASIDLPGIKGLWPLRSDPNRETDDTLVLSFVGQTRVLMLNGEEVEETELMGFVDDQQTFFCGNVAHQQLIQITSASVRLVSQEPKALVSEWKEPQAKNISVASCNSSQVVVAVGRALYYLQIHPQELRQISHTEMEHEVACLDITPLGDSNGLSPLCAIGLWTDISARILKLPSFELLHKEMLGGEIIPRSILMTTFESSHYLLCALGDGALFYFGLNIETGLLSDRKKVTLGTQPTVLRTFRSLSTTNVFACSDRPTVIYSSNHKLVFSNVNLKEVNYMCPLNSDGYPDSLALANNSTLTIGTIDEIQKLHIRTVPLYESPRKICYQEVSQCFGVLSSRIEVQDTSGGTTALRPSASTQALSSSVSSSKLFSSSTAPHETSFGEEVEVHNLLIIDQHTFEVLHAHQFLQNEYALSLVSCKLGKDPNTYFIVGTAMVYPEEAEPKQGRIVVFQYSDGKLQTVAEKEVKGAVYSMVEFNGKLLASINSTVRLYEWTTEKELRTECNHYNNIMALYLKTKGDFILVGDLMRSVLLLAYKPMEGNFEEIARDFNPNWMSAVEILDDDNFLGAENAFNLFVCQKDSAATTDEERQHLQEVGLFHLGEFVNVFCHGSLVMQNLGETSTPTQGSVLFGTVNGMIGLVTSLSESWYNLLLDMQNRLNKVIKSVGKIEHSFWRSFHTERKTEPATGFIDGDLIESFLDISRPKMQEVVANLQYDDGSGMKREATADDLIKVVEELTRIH
# [3] = target: T3, IKZF1 (Homo sapiens, UniProt Q13422+Q96SW2); test: Western-blot assay of substrate protein degradation in hPBMCs, IKZF1; type: cell-based; details: 24 hours of compound treatment, compounds tested at 50 nM and 500 nM (concentration of the table not stated)
# T3 construct: endogenous in cells; host or cells: hPBMCs (Milecell Biotechnologies)
# [4] = target: T4, human Cereblon WT GST-tagged protein (Homo sapiens, UniProt Q96SW2); test: CRBN-binding affinity by HTRF (CEREBLON BINDING kit); details: HTRF inhibitory activity, CEREBLON BINDING kit; read-out: HTRF IC50
# T4 construct: purchased CISBIO 64BDCRBNPEH
# T4 sequence (Q96SW2 whole entry): as the sequence (Q96SW2 whole entry) above
# [5] = target: T5, CK1α (Homo sapiens, UniProt P48729+Q96SW2); test: Western-blot assay of substrate protein degradation in hPBMCs, CK1α; type: cell-based; details: 24 hours of compound treatment, compounds tested at 50 nM and 500 nM (concentration of the table not stated)
# T5 construct: endogenous in cells; host or cells: hPBMCs (Milecell Biotechnologies)
# T5 sequence (P48729 whole entry): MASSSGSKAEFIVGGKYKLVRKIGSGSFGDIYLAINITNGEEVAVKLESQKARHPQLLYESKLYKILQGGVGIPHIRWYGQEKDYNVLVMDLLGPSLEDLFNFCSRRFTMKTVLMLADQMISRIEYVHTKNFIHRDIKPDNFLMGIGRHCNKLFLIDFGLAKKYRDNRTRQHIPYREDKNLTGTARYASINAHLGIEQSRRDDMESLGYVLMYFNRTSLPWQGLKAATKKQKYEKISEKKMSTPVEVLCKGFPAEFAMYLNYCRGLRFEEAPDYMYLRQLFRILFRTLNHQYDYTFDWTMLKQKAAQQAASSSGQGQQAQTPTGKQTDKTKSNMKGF
# T5 sequence (Q96SW2 whole entry): as the sequence (Q96SW2 whole entry) above
# T5 sequence (Q16531 whole entry partner): as the sequence (Q16531 whole entry partner) above
# [6] = target: T6, WEE1 (Homo sapiens, UniProt P30291+Q96SW2); test: Western-blot assay of substrate protein degradation in hPBMCs, WEE1; type: cell-based; details: 24 hours of compound treatment, compounds tested at 50 nM and 500 nM (concentration of the table not stated)
# T6 construct: endogenous in cells; host or cells: hPBMCs (Milecell Biotechnologies)
# T6 sequence (P30291 whole entry): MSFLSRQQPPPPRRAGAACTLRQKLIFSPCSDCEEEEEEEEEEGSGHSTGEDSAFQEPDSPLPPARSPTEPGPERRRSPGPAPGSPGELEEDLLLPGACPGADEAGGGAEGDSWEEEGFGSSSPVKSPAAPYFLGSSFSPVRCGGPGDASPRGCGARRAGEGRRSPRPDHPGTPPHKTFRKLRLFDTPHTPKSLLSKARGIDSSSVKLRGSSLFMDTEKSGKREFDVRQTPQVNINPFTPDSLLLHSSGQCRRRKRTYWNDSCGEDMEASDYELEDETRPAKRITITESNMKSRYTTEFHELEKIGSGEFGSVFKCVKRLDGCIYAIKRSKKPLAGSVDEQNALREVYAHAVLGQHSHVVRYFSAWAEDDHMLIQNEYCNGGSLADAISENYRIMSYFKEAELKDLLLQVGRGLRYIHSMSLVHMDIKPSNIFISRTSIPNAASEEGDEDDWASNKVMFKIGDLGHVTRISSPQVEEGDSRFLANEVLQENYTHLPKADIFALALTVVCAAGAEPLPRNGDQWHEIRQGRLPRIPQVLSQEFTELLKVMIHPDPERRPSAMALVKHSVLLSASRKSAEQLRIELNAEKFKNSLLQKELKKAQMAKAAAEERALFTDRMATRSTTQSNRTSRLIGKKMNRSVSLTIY
# T6 sequence (Q96SW2 whole entry): as the sequence (Q96SW2 whole entry) above
# T6 sequence (Q16531 whole entry partner): as the sequence (Q16531 whole entry partner) above
# [7] = target: T7, IKZF2 (Homo sapiens, UniProt Q96SW2+Q9UKS7); test: Western-blot assay of substrate protein degradation in hPBMCs, IKZF2; type: cell-based; details: 24 hours of compound treatment, compounds tested at 50 nM and 500 nM (concentration of the table not stated)
# T7 construct: endogenous in cells; host or cells: hPBMCs (Milecell Biotechnologies)
# T7 sequence (Q9UKS7 whole entry): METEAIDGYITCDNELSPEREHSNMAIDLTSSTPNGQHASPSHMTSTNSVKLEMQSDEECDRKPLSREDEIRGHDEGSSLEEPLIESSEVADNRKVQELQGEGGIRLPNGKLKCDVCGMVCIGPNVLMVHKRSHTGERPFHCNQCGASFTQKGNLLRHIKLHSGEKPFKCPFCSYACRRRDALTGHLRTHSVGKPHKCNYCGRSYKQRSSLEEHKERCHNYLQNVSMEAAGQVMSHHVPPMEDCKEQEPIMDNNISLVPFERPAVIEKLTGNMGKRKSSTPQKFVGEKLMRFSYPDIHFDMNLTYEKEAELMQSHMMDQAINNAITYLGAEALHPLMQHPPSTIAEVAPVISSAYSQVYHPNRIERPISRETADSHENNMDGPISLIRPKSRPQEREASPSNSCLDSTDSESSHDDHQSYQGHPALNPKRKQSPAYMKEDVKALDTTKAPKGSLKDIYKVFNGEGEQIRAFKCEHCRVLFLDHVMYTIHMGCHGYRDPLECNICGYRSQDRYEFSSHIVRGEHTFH
# T7 sequence (Q96SW2 whole entry): as the sequence (Q96SW2 whole entry) above
# T7 sequence (Q16531 whole entry partner): as the sequence (Q16531 whole entry partner) above
# T1 sequence (P15170 whole entry): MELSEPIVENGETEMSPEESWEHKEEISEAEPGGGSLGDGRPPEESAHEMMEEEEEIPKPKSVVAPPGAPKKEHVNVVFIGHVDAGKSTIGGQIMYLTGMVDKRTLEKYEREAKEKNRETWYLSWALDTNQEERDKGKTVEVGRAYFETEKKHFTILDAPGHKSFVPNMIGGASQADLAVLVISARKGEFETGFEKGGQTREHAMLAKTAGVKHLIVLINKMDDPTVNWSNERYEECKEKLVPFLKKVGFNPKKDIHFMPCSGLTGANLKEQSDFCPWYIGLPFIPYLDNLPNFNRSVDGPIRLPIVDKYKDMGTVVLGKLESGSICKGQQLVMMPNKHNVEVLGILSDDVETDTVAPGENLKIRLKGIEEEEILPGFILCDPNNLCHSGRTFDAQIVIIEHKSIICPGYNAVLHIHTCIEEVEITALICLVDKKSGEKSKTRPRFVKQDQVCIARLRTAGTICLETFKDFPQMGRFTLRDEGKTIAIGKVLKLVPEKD
# T1 sequence (Q96SW2 whole entry): as the sequence (Q96SW2 whole entry) above
# T1 sequence (Q16531 whole entry partner): as the sequence (Q16531 whole entry partner) above
Structure (SMILES),GSPT1 substrate protein remaining % [1],IKZF3 substrate protein remaining % [2],IKZF 1 substrate protein remaining % [3],IC50 [4],CK1a substrate protein remaining % [5],Weel substrate protein remaining % [6],IKZF2 substrate protein remaining % [7]
"O=C1CCC(N2Cc3cc(CN4CCN(c5nc(N6CCOCC6)c6sccc6n5)CC4)ccc3C2=O)C(=O)N1 (stereo not drawn) [GT-04906, 3-(5-((4-(4-morpholinothieno[3,2-d]pyrimidin-2-yl)piperazin-1-yl)methyl)-1-oxoisoindolin-2-yl)piperidine-2,6-dione]",B (80%< substrate protein remaining %≤ 100%),B (80%< substrate protein remaining %≤ 100%),A (0% ≤ substrate protein remaining % ≤ 80%),< 500 nM,B (80%< substrate protein remaining %≤ 100%),B (80%< substrate protein remaining %≤ 100%),B (80%< substrate protein remaining %≤ 100%)
"O=C1CCC(N2Cc3cc(CN4CC=C(c5ncnc6scc(-c7ccccc7)c56)CC4)ccc3C2=O)C(=O)N1 (stereo not drawn) [GT-04908, 3-(1-oxo-5-((4-(5-phenylthieno[2,3-d]pyrimidin-4-yl)-3,6-dihydropyridin-1(2H)-yl)methyl)isoindolin-2-yl)piperidine-2,6-dione]",A (0% ≤ substrate protein remaining % ≤ 80%),A (0% ≤ substrate protein remaining % ≤ 80%),A (0% ≤ substrate protein remaining % ≤ 80%),< 500 nM,B (80%< substrate protein remaining %≤ 100%),A (0% ≤ substrate protein remaining % ≤ 80%),A (0% ≤ substrate protein remaining % ≤ 80%)
"O=C1CCC(N2Cc3cc(CN4CCN(c5ccnc(Br)c5F)CC4)ccc3C2=O)C(=O)N1 (stereo not drawn) [GT-04928, 3-(5-((4-(2-bromo-3-fluoropyridin-4-yl)piperazin-1-yl)methyl)-1-oxoisoindolin-2-yl)piperidine-2,6-dione]",A (0% ≤ substrate protein remaining % ≤ 80%),B (80%< substrate protein remaining %≤ 100%),B (80%< substrate protein remaining %≤ 100%),< 500 nM,B (80%< substrate protein remaining %≤ 100%),B (80%< substrate protein remaining %≤ 100%),B (80%< substrate protein remaining %≤ 100%)
"O=C1CCC(N2Cc3cc(CN4CCN(c5ccnc(O)c5F)CC4)ccc3C2=O)C(=O)N1 (stereo not drawn) [GT-04929, 3-(5-((4-(3-fluoro-2-hydroxypyridin-4-yl)piperazin-1-yl)methyl)-1-oxoisoindolin-2-yl)piperidine-2,6-dione]",A (0% ≤ substrate protein remaining % ≤ 80%),B (80%< substrate protein remaining %≤ 100%),A (0% ≤ substrate protein remaining % ≤ 80%),500 to 1000 nM,B (80%< substrate protein remaining %≤ 100%),B (80%< substrate protein remaining %≤ 100%),B (80%< substrate protein remaining %≤ 100%)
"O=C1CCC(N2Cc3cc(CN4CCC(c5ncc6ccsc6n5)CC4)ccc3C2=O)C(=O)N1 (stereo not drawn) [GT-04933, 3-(1-oxo-5-((4-(thieno[2,3-d]pyrimidin-2-yl)piperidin-1-yl)methyl)isoindolin-2-yl)piperidine-2,6-dione]",A (0% ≤ substrate protein remaining % ≤ 80%),A (0% ≤ substrate protein remaining % ≤ 80%),A (0% ≤ substrate protein remaining % ≤ 80%),500 to 1000 nM,A (0% ≤ substrate protein remaining % ≤ 80%),A (0% ≤ substrate protein remaining % ≤ 80%),A (0% ≤ substrate protein remaining % ≤ 80%)
"CCc1cnc(C2CCN(Cc3ccc4c(c3)CN(C3CCC(=O)NC3=O)C4=O)CC2)nc1 (stereo not drawn) [GT-04936, 3-(5-((4-(5-ethylpyrimidin-2-yl)piperidin-1-yl)methyl)-1-oxoisoindolin-2-yl)piperidine-2,6-dione]",A (0% ≤ substrate protein remaining % ≤ 80%),A (0% ≤ substrate protein remaining % ≤ 80%),A (0% ≤ substrate protein remaining % ≤ 80%),1000 to 1500 nM,A (0% ≤ substrate protein remaining % ≤ 80%),A (0% ≤ substrate protein remaining % ≤ 80%),A (0% ≤ substrate protein remaining % ≤ 80%)
"Cc1nc(C2CCN(Cc3ccc4c(c3)CN(C3CCC(=O)NC3=O)C4=O)CC2)c2c3c(sc2n1)CCCC3 (stereo not drawn) [GT-04993, 3-(5-((4-(2-methyl-5,6,7,8-tetrahydrobenzo[4,5]thieno[2,3-d]pyrimidin-4-yl)piperidin-1-yl)methyl)-1-oxoisoindolin-2-yl)piperidine-2,6-dione]",A (0% ≤ substrate protein remaining % ≤ 80%),A (0% ≤ substrate protein remaining % ≤ 80%),A (0% ≤ substrate protein remaining % ≤ 80%),< 500 nM,A (0% ≤ substrate protein remaining % ≤ 80%),A (0% ≤ substrate protein remaining % ≤ 80%),A (0% ≤ substrate protein remaining % ≤ 80%)
"O=C1CCC(N2Cc3cc(CN4CCC(c5ncnc6sc7c(c56)CCC7)CC4)ccc3C2=O)C(=O)N1 (stereo not drawn) [GT-04994, 3-(5-((4-(6,7-dihydro-5H-cyclopenta[4,5]thieno[2,3-d]pyrimidin-4-yl)piperidin-1-yl)methyl)-1-oxoisoindolin-2-yl)piperidine-2,6-dione]",B (80%< substrate protein remaining %≤ 100%),A (0% ≤ substrate protein remaining % ≤ 80%),A (0% ≤ substrate protein remaining % ≤ 80%),< 500 nM,B (80%< substrate protein remaining %≤ 100%),A (0% ≤ substrate protein remaining % ≤ 80%),A (0% ≤ substrate protein remaining % ≤ 80%)
"O=C1CCC(N2Cc3cc(CN4CCC(c5ncnc6scc(-c7ccccc7)c56)CC4)ccc3C2=O)C(=O)N1 (stereo not drawn) [GT-04995, 3-(1-oxo-5-((4-(5-phenylthieno[2,3-d]pyrimidin-4-yl)piperidin-1-yl)methyl)isoindolin-2-yl)piperidine-2,6-dione]",B (80%< substrate protein remaining %≤ 100%),A (0% ≤ substrate protein remaining % ≤ 80%),A (0% ≤ substrate protein remaining % ≤ 80%),< 500 nM,B (80%< substrate protein remaining %≤ 100%),A (0% ≤ substrate protein remaining % ≤ 80%),A (0% ≤ substrate protein remaining % ≤ 80%)
"O=C1CCC(N2Cc3cc(CN4CCN(c5ncnc6sc7c(c56)CCC7)CC4)ccc3C2=O)C(=O)N1 (stereo not drawn) [GT-04996, 3-(5-((4-(6,7-dihydro-5H-cyclopenta[4,5]thieno[2,3-d]pyrimidin-4-yl)piperazin-1-yl)methyl)-1-oxoisoindolin-2-yl)piperidine-2,6-dione]",A (0% ≤ substrate protein remaining % ≤ 80%),A (0% ≤ substrate protein remaining % ≤ 80%),A (0% ≤ substrate protein remaining % ≤ 80%),< 500 nM,A (0% ≤ substrate protein remaining % ≤ 80%),A (0% ≤ substrate protein remaining % ≤ 80%),A (0% ≤ substrate protein remaining % ≤ 80%)
"Cc1sc2ncnc(C3CCN(Cc4ccc5c(c4)CN(C4CCC(=O)NC4=O)C5=O)CC3)c2c1C (stereo not drawn) [GT-05034, 3-(5-((4-(5,6-dimethylthieno[2,3-d]pyrimidin-4-yl)piperidin-1-yl)methyl)-1-oxoisoindolin-2-yl)piperidine-2,6-dione]",A (0% ≤ substrate protein remaining % ≤ 80%),A (0% ≤ substrate protein remaining % ≤ 80%),A (0% ≤ substrate protein remaining % ≤ 80%),< 500 nM,A (0% ≤ substrate protein remaining % ≤ 80%),B (80%< substrate protein remaining %≤ 100%),A (0% ≤ substrate protein remaining % ≤ 80%)
"Cc1nc(C2=CCN(Cc3ccc4c(c3)CN(C3CCC(=O)NC3=O)C4=O)CC2)c2c(-c3ccccc3)csc2n1 (stereo not drawn) [GT-05102, 3-(5-((4-(2-methyl-5-phenylthieno[2,3-d]pyrimidin-4-yl)-3,6-dihydropyridin-1(2H)-yl)methyl)-1-oxoisoindolin-2-yl)piperidine-2,6-dione]",A (0% ≤ substrate protein remaining % ≤ 80%),B (80%< substrate protein remaining %≤ 100%),A (0% ≤ substrate protein remaining % ≤ 80%),< 500 nM,B (80%< substrate protein remaining %≤ 100%),A (0% ≤ substrate protein remaining % ≤ 80%),A (0% ≤ substrate protein remaining % ≤ 80%)

# — EP4745137A1 (Gluetacs Therapeutics (Shanghai) Co., Ltd., priority 2023, dated 2025)
